The subject of one assay is SERT. The following applies: cited from earlier work.
The test system of the next assay is SERT Y107C/C109A. Kind of assay: Cysteine accessibility, extracellular pathway: MTSET reactivity with Y107C/C109A. It is filed as cell-based. The following applies: 10 μM ligand, compared with the control (MTSET alone).
The test system of a further assay is SERT S277C/X5C. Kind of assay: Cysteine accessibility, cytoplasmic pathway: MTSEA reactivity with S277C/X5C. It is filed as cell-based. Particulars: 10 μM ligand, digitonin-permeabilized cells, compared with the control.
The next assay addresses T1, hSERT Q111N (Homo sapiens, UniProt P31645, Q111N).
T1 construct: forward and reverse primers were used to amplify a full-length hSERT; expressed in transfected cells; host or cells: HeLa cells, transient, pcDNA3.1
Kind of assay: APP^+ uptake, hSERT Q111N. It is filed as cell-based. The following applies: S2 site mutant.

The target in another assay is T2, hSERT Q562N (Homo sapiens, UniProt P31645, Q562N).
T2 construct: forward and reverse primers were used to amplify a full-length hSERT; expressed in transfected cells; host or cells: HeLa
The assay can be described thus: APP^+ uptake, hSERT Q562N. It is filed as cell-based. Particulars: S2 site mutant.

Another assay addresses T3, hSERT G498T (Homo sapiens, UniProt P31645, G498T).
T3 construct: forward and reverse primers were used to amplify a full-length hSERT; expressed in transfected cells; host or cells: HeLa cells, transient, pcDNA3.1
Kind of assay: APP^+ uptake, hSERT G498T. Particulars: S2 site mutant. It is filed as cell-based.

For a further assay, the target named is T4, hSERT WT (Homo sapiens, UniProt P31645).
T4 construct: forward and reverse primers were used to amplify a full-length hSERT; expressed in transfected cells; host or cells: HeLa cells (CCL-2), transient, pcDNA3.1
The assay can be described thus: APP^+ uptake, hSERT WT. In kind it is cell-based. Particulars: WT.

The target of a further assay is T5, hSERT L563A (Homo sapiens, UniProt P31645, L563A).
T5 construct: forward and reverse primers were used to amplify a full-length hSERT; expressed in transfected cells; host or cells: HeLa
Kind of assay: APP^+ uptake, hSERT L563A. In kind it is cell-based. The following applies: S2 site mutant.

The target of another assay is T6, hSERT S559A (Homo sapiens, UniProt P31645, S559A).
T6 construct: forward and reverse primers were used to amplify a full-length hSERT; expressed in transfected cells; host or cells: HeLa cells, transient, pcDNA3.1
Kind of assay: APP^+ uptake, hSERT S559A. It is filed as cell-based. Particulars: S2 site mutant.

Another assay addresses T7, hSERT R564A (Homo sapiens, UniProt P31645, R564A).
T7 construct: forward and reverse primers were used to amplify a full-length hSERT; expressed in transfected cells; host or cells: HeLa
Kind of assay: APP^+ uptake, hSERT R564A. In kind it is cell-based. The following applies: S2 site mutant.

The next assay has as its target T8, hSERT P561G (Homo sapiens, UniProt P31645, P561G).
T8 construct: forward and reverse primers were used to amplify a full-length hSERT; expressed in transfected cells; host or cells: HeLa
Kind of assay: APP^+ uptake, hSERT P561G. It is filed as cell-based. Particulars: S2 site mutant.

In a further assay the target is T9, hSERT Y579A (Homo sapiens, UniProt P31645, Y579A).
T9 construct: forward and reverse primers were used to amplify a full-length hSERT; expressed in transfected cells; host or cells: HeLa
The assay can be described thus: APP^+ uptake, hSERT Y579A. The following applies: S2 site mutant. It is filed as cell-based.

Another assay concerns the target T10, hSERT P560G (Homo sapiens, UniProt P31645, P560G).
T10 construct: forward and reverse primers were used to amplify a full-length hSERT; expressed in transfected cells; host or cells: HeLa cells, transient, pcDNA3.1
The assay can be described thus: APP^+ uptake, hSERT P560G. In kind it is cell-based. Particulars: S2 site mutant.

For a further assay, the target named is T11, hSERT T497A (Homo sapiens, UniProt P31645, T497A).
T11 construct: forward and reverse primers were used to amplify a full-length hSERT; expressed in transfected cells; host or cells: HeLa cells, transient, pcDNA3.1
The assay can be described thus: APP^+ uptake, hSERT T497A. In kind it is cell-based. The following applies: S2 site mutant.

For a further assay, the target named is T12, hSERT E494Q (Homo sapiens, UniProt P31645, E494Q).
T12 construct: forward and reverse primers were used to amplify a full-length hSERT; expressed in transfected cells; host or cells: HeLa cells, transient, pcDNA3.1
Kind of assay: APP^+ uptake, hSERT E494Q. It is filed as cell-based. Particulars: S2 site mutant.

The next assay has as its target T13, hSERT L565A (Homo sapiens, UniProt P31645, L565A).
T13 construct: forward and reverse primers were used to amplify a full-length hSERT; expressed in transfected cells; host or cells: HeLa
The assay can be described thus: APP^+ uptake, hSERT L565A. It is filed as cell-based. Particulars: S2 site mutant.

A further assay addresses T14, hSERT F556A (Homo sapiens, UniProt P31645, F556A).
T14 construct: forward and reverse primers were used to amplify a full-length hSERT; expressed in transfected cells; host or cells: HeLa cells, transient, pcDNA3.1
The assay can be described thus: APP^+ uptake, hSERT F556A. It is filed as cell-based. The following applies: S2 site mutant.

The next assay deals with T15, hSERT P499G (Homo sapiens, UniProt P31645, P499G).
T15 construct: forward and reverse primers were used to amplify a full-length hSERT; expressed in transfected cells; host or cells: HeLa cells, transient, pcDNA3.1
The assay can be described thus: APP^+ uptake, hSERT P499G. The following applies: S2 site mutant. In kind it is cell-based.

In a further assay the target is T16, hSERT D328A (Homo sapiens, UniProt P31645, D328A).
T16 construct: forward and reverse primers were used to amplify a full-length hSERT; expressed in transfected cells; host or cells: HeLa cells, transient, pcDNA3.1
The assay can be described thus: APP^+ uptake, hSERT D328A. The following applies: S2 site mutant. It is filed as cell-based.

Another assay deals with T17, hSERT I327A (Homo sapiens, UniProt P31645, I327A).
T17 construct: forward and reverse primers were used to amplify a full-length hSERT; expressed in transfected cells; host or cells: HeLa cells, transient, pcDNA3.1
Kind of assay: APP^+ uptake, hSERT I327A. It is filed as cell-based. Particulars: S2 site mutant.

The target in another assay is T18, hSERT T583A (Homo sapiens, UniProt P31645, T583A).
T18 construct: forward and reverse primers were used to amplify a full-length hSERT; expressed in transfected cells; host or cells: HeLa
The assay can be described thus: APP^+ uptake, hSERT T583A. It is filed as cell-based. Particulars: S2 site mutant.

The target of another assay is T19, hSERT E493N (Homo sapiens, UniProt P31645, E493N).
T19 construct: forward and reverse primers were used to amplify a full-length hSERT; expressed in transfected cells; host or cells: HeLa cells, transient, pcDNA3.1
Kind of assay: APP^+ uptake, hSERT E493N. In kind it is cell-based. Particulars: S2 site mutant.

As usually defined, the Km is the substrate concentration at which the rate is half of its maximum.

As to `COc1cc(C2OCC3C(c4cc(OC)c(OC5OC(CO)C(O)C(O)C5OC5OCC(O)(CO)C5O)c(OC)c4)OCC23)cc(OC)c1O` (single isomer, unassigned; (-)) [SAG, (-)-syringaresinol-4-O-D-apiofuranosyl-(1→2)-D-glucopyranoside], in the assay with SERT, the “inhibitory potency against SERT” value is given as “a few micromolar range” and the “mode of inhibition of SERT activity” value is given as “noncompetitively inhibit”.
`COc1cc(C2OCC3C(c4cc(OC)c(O[C@@H]5O[C@H](CO)[C@@H](O)[C@H](O)[C@H]5O)c(OC)c4)OCC23)cc(OC)c1O[C@@H]1O[C@H](CO)[C@@H](O)[C@H](O)[C@H]1O` (single isomer, unassigned; (-)) [SBG, (-)-syringaresinol-4,4′-bis-O-β-D-glucopyranoside]: in the assay with SERT, the “inhibitory potency against SERT” value is recorded as “a few micromolar range” and the “mode of inhibition of SERT activity” value was “noncompetitively inhibit”.
For `NCCc1c[nH]c2ccc(O)cc12` [5-HT, 5-hydroxytryptamine, reference compound], the “rate constant of MTSET reactivity with Y107C/C109A” value in the assay with SERT Y107C/C109A is given as “decreased”. The “rate constant of MTSEA reactivity with S277C/X5C” value in the assay with SERT S277C/X5C is “increased”.
Take `CN(C)c1ccc(-c2cc[n+](C)cc2)cc1` [APP^+, 4-(4-(dimethylamino)phenyl)-1-methylpyridinium]: the Vmax at hSERT Q111N (APP^+ transport) stood at 26.93 ± 1.35 AFU/min; at hSERT Q562N (APP^+ transport), 23.57 ± 1.49 AFU/min; on hSERT G498T (APP^+ transport), 26.30 ± 1.52 AFU/min; on hSERT WT (APP^+ transport), 22.98 ± 0.92 AFU/min; at hSERT L563A (APP^+ transport) it was 23.53 ± 0.45 AFU/min; on hSERT S559A (APP^+ transport), 23.68 ± 0.57 AFU/min. For the same compound, the Vmax at hSERT R564A (APP^+ transport) was 27.10 ± 0.08 AFU/min; at hSERT P561G (APP^+ transport), 26.55 ± 1.08 AFU/min; at hSERT Y579A (APP^+ transport) it was 23.89 ± 2.33 AFU/min; at hSERT P560G (APP^+ transport) it was 21.70 ± 0.90 AFU/min; on hSERT T497A (APP^+ transport) it was 26.63 ± 1.09 AFU/min; at hSERT E494Q (APP^+ transport), 31.12 ± 0.89 AFU/min. Besides, the Vmax on hSERT L565A (APP^+ transport) was 21.13 ± 0.16 AFU/min; on hSERT F556A (APP^+ transport) it was 26.84 ± 1.74 AFU/min; on hSERT P499G (APP^+ transport), 27.28 ± 0.43 AFU/min; at hSERT D328A (APP^+ transport), 27.83 ± 0.85 AFU/min; at hSERT I327A (APP^+ transport), 26.54 ± 1.43 AFU/min; on hSERT T583A (APP^+ transport), 26.97 ± 0.26 AFU/min. The Vmax on hSERT E493N (APP^+ transport) turned out to be 25.48 ± 0.96 AFU/min. Moreover, the Michaelis constant (Km) turned out to be 3.69 ± 0.36 µM on hSERT Q111N; 1.85 ± 0.36 µM at hSERT Q562N; 3.75 ± 0.32 µM at hSERT G498T; 2.24 ± 0.45 µM at hSERT WT; 1.53 ± 0.07 µM at hSERT L563A; 3.82 ± 0.55 µM at hSERT S559A. Moreover, the Km at hSERT R564A came out at 3.41 ± 0.12 µM; at hSERT P561G, 2.73 ± 0.09 µM; at hSERT Y579A it was 2.81 ± 0.08 µM; at hSERT P560G, 1.85 ± 0.16 µM; on hSERT T497A it was 3.85 ± 0.06 µM; on hSERT E494Q it was 6.83 ± 0.86 µM. The Km on hSERT L565A was found to be 0.68 ± 0.04 µM; at hSERT F556A, 4.69 ± 1.02 µM; at hSERT P499G it was 3.72 ± 0.45 µM; on hSERT D328A it was 3.81 ± 0.27 µM; at hSERT I327A it was 4.27 ± 0.79 µM; at hSERT T583A, 3.68 ± 0.15 µM. Also, the Michaelis-Menten constant (Km) on hSERT E493N worked out at 4.83 ± 0.19 µM.

The record behind these values is paper PMC11678425, “(-)-Syringaresinol Exerts an Antidepressant-like Activity in Mice by Noncompetitive Inhibition of the Serotonin Transporter” (Pharmaceuticals, 2024).
